{
  "source": "patent US4461765A",
  "about": "(Shionogi & Co., Ltd., priority 1979, dated 1984)",
  "origin": "cited, not measured here",
  "details": "co-trimoxazol SMX:TMP 5:1; oral or intravenous administration",
  "data": [
    {"smiles": "COc1cc(Cc2cnc(N)nc2N)cc(OC)c1OC", "note": "[TMP, trimethoprim]", "values": [
      {"measurement": "minimum inhibition concentration in the blood level", "result": 0.6, "unit": "µg/mL"}
    ]}
  ]
}
